From PMC7596181 (Frontiers in Immunology, 2020) come the findings set out here.

This assay addresses T1, mouse TLR4 (Mus musculus, UniProt Q9JHF9+Q9QUK6).
T1 sequence (Q9QUK6 26-835): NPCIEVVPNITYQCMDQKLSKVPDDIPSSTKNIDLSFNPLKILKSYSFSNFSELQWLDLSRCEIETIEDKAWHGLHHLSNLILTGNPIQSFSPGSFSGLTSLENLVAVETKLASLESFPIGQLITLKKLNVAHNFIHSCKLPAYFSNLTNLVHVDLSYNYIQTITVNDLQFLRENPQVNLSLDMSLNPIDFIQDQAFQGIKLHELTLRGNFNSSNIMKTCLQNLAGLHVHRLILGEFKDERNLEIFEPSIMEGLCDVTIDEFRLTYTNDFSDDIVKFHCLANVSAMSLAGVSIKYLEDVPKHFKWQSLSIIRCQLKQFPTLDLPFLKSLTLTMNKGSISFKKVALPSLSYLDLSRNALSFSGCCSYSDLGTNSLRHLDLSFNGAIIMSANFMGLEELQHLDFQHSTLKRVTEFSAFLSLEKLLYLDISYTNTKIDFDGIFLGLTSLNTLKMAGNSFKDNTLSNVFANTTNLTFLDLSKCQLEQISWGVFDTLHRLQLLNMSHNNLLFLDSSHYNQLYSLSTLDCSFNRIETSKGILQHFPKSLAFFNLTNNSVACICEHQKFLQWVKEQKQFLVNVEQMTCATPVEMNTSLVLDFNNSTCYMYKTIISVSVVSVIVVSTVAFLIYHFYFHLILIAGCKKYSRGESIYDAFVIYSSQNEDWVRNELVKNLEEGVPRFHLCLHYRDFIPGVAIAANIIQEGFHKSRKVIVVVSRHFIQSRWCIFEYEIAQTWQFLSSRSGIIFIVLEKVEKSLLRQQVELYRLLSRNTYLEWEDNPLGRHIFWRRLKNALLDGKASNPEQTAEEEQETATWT
T1 sequence (Q9JHF9 19-160): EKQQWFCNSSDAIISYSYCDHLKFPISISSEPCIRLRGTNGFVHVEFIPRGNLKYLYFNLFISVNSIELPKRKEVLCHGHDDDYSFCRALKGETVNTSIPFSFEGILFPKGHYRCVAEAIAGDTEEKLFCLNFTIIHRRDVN
In words: SEAP assay, agonist dose response in mouse TLR4 HEK-Blue reporter cells. Format: cell-based. Also noted: host or cells: HEK-Blue (HEK293-derived) reporter cells. The settings on record: for agonist profile: mouse TLR4 HEK-Blue reporter cells. The protocol: Human and mouse HEK-Blue reporter cells express human or mouse CD14, MD2, and TLR4 and secreted embryonic alkaline phosphatase (SEAP) under control of a promoter with binding sites for NFκB and AP-1 transcription factors (InvivoGen cat. nos. hkb-htlr4 and hkb-mtlr4). Cells were cultured as directed by the supplier, with the exception that Glutamax (ThermoFisher cat. no. 10569010) was used in place of L-glutamine, and TrypLE Express (ThermoFisher cat. no. 12605010) was used to release adherent cells for each passage. BALB/c mouse RAW264.7 and human THP-1 cells (ATCC® cat. nos. TIB-71 and TIB-202) were cultured in DMEM (4.5 g/L D-Glucose with 2 mM L-glutamine, 1 mM sodium pyruvate, 100 U/ml penicillin and 100 μg/ml streptomycin) supplemented with 10% heat-inactivated FBS. THP-1 cells were exposed to phorbol-12-myristate-13-acetate (PMA, InvivoGen cat no. tlrl-pma), 5 ng/ml, for 48 h prior to treatment with TLR4 agonists. Bone marrow-derived dendritic cells (BMDCs) were generated using C57BL/6 mouse femurs following the exact method published by Lutz et al. ([29]) except that 5 rather than 20 ng/ml recombinant GM-CSF was used to differentiate the DC. Human peripheral blood […] (PBMCs) were prepared from venous blood of healthy volunteers that had been collected using sodium citrate as anti-coagulant, 20 ml of which was mixed with 15 ml calcium- and magnesium-free Hank’s Balanced Saline Solution (HBSS) and then laid over 6 ml Histopaque®-1077 (1.077 g/ml, Sigma-Aldrich cat no. 10771) for density gradient centrifugation. The buffy coat layer was collected by pipette, washed once in HBSS, once in serum-free RPMI-1640, and then the PBMCs were resuspended in RPMI-1640 supplemented with 100 U/ml penicillin, 100 µg/ml streptomycin, 1 mM Na-Pyruvate, 2 mM L-glutamine, 50 μM βME and 10% heat-inactivated, male AB human serum for culture.
SEAP assays were performed to evaluate the extent to which TLR4 signaling was activated in HEK-Blue reporter cells expressing mouse or human receptors (CD14, MD2 and TLR4). Reporter cells were harvested when 70–80% confluent and plated in 96-well, flat-bottom microtiter plates either 1 h, one day or two days (5 × 10^4, 4 × 10^4 or 2 × 10^4 cells/well, respectively) before addition of TLR4 agonists for 18–24 h. Culture supernatants were transferred to U-bottom microtiter plates, centrifuged and transferred again to microtiter plates to ensure reporter cells were not present. The culture supernatants were added to QUANTI-BLUE substrate following instructions provided by the manufacturer (InvivoGen cat. nos. rep-qbl or rep-qbs) and incubated at 37°C in a tissue culture incubator. At successive intervals beginning 10 min after mixing the supernatants and substrate, the plates were placed in an Emax plate reader (Molecular Devices LLC) and optical density was measured at visible light wavelength […] (OD650). The shortest incubations at which dose response curve fits produced maximal R^2 ‘goodness of fit’ values, as determined by GraphPad Prism software, were used for analysis.
Pharmacological profiles of the TLR4 reagents were generated by performing dose response curves in one of four formats. 1) Agonist potency and efficacy (EC50 and height of dose plateau, respectively) were measured by diluting TLR4 reagents successively in complete culture medium [DMEM or RPMI supplemented with fetal bovine serum (FBS) or RPMI supplemented with human serum, depending on cell-type]. Half-log step dilutions were performed in 96-well, U-bottom microtiter plates using a multichannel pipette to transfer and mix the suspensions, with fresh tips used for each dilution step. One-tenth (20 μl) volumes from wells of the dilution plate were then transferred to wells containing cells that had been plated in nine-tenth volumes (180 μl) of culture medium. […]

Regarding `CCCCCCCCCCCC(=O)OC(CCCCCCCCCCC)CC(=O)NC1C(OCC2OC(O)C(NC(=O)CC(O)CCCCCCCCCCC)C(O)C2O)OC(CO)C(OP(=O)(O)O)C1OC(=O)CC(O)CCCCCCCCCCC` (stereo not shown) [ML4A], the “agonist profile” value is listed as “agonist only of mouse TLR4”. The “efficacy relative to the full agonist PHAD” value (mouse TLR4 HEK-Blue, 100% = top dose plateau of PHAD) is on record as ~80%.
As for `CCCCCCCCCCCC(=O)OC(CCCCCCCCCCC)CC(=O)NC1C(OCC2OC(O)C(NC(=O)CC(O)CCCCCCCCCCC)C(O)C2O)OC(CO)C(OP(=O)(O)O)C1O` (stereo not shown) [ML3], the “agonist profile” value is “largely inactive”.
As to `CCCCCCCCCCCCCCCC(=O)OC(CCCCCCCCCCC)CC(=O)NC1C(O)OC(COC2OC(CO)C(OP(=O)(O)O)C(O)C2NC(=O)CC(CCCCCCCCCCC)OC(=O)CCCCCCCCCCC)C(O)C1O` (stereo not shown) [ML4B], the “agonist profile” value is “largely inactive”.
